These results are taken from patent publication US11786533B2, “Use of EZH2 inhibitors for treating cancer” (Epizyme, Inc., priority 2016, dated 2023).

Molecules are shown by their SMILES.

The test system of data set [1] is genetically defined cancer cells. Description: Target methyl mark inhibition and killing of cancer cells in vitro. It counts as cell-based.
A further data set can be described thus: Oral bioavailability. It counts as in vivo.
The subject of a further data set is Animal models. Nature of the data set: In vivo efficacy in animal models.

With `CCN(c1cc(-c2ccc(CN3CCOCC3)cc2)cc(C(=O)NCc2c(C)cc(C)[nH]c2=O)c1C)C1CCOCC1` [Compound 44], the “target methyl mark inhibition resulting in killing of cancer cells” value in data set [1] is recorded as “killing of genetically defined cancer cells in vitro”. The oral bioavailability entry in the data set “Oral bioavailability” is listed as “orally bioavailable”. Moreover, in the data set on Animal models, the “in vivo efficacy following inhibition of target methyl mark” value is reported as “sustained in vivo efficacy”.
